Experimental data as given in patent US11612606B2, “8-aminoisoquinoline compounds and uses thereof” (priority 2018, dated 2023).

Tests used:
[1] = molecular target: HPK full length, T165E S171E (Homo sapiens (Human), UniProt Q92918, S171E/T165E); assay: HPK1-FL HTRF enzymatic assay ("HTRF"); format: biochemical; settings: ATP 1 mM, read-out: HPK1 Ki
How it was run: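 HTRF detection of phosphorylated biotin-SLP-76 used Eu-anti-pSLP76 antibody and SA-XL665, read after 60 min. The kinase reaction ran 60 min at […], following a 30-min compound preincubation with the full-length enzyme.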

[2] = test system: primary human pan T cells; assay: Human T-cell IL2 induction assay; format: cell-based
Protocol: Assay Principle: Anti-CD3 and anti-CD28 activates TCR signaling in primary human pan T cells leading to IL-2 promoter induction. Secreted IL-2 in cell culture supernatant is detected by electrochemiluminescence using a capture antibody against IL-2 and an anti-IL-2 antibody labeled with SULFO-tag. Also see www.mesoscale.com for additional electrochemiluminescence technology information.
Assay Procedure: Incubate primary human pan T cells with varying concentrations of test compounds for 30 minutes in a humidified incubator at 37° C. and 5% CO2. Transfer cells to a plate pre-coated with a fixed concentration of anti-human CD3 (determined separately for each donor lot) and add soluble anti-human CD28 (final concentration=1 μg/ml). Stimulate cells in a humidified incubator at 37° C. and 5% CO2 for 4 hours. Transfer 25 μl of supernatant to a MSD single spot plate pre-coated with an anti-human IL-2 antibody. Incubate MSD plate overnight at 4° C. with gentle shaking. Wash MSD plate 4× with wash buffer. Add SULFO-tagged detection antibody at a 1:50 dilution and incubate at room temperature shaking for 2 hours. Wash MSD plate 4× with wash buffer and add 150 μl 2×MSD read buffer. Read on an MSD instrument. Normalize data to stimulated/untreated controls to calculate % activity at each concentration of compound.
Instrumentation: • Biomek FX for liquid handling (Beckman Coulter) • MSD SECTOR S 600 (Meso Scale Discovery)
Exemplary compounds of Formula (I) were tested in the human T-cell IL-2 induction assays.

HPK full length, T165E S171E, sequence (Q92918 whole entry T165E/S171E, looked up): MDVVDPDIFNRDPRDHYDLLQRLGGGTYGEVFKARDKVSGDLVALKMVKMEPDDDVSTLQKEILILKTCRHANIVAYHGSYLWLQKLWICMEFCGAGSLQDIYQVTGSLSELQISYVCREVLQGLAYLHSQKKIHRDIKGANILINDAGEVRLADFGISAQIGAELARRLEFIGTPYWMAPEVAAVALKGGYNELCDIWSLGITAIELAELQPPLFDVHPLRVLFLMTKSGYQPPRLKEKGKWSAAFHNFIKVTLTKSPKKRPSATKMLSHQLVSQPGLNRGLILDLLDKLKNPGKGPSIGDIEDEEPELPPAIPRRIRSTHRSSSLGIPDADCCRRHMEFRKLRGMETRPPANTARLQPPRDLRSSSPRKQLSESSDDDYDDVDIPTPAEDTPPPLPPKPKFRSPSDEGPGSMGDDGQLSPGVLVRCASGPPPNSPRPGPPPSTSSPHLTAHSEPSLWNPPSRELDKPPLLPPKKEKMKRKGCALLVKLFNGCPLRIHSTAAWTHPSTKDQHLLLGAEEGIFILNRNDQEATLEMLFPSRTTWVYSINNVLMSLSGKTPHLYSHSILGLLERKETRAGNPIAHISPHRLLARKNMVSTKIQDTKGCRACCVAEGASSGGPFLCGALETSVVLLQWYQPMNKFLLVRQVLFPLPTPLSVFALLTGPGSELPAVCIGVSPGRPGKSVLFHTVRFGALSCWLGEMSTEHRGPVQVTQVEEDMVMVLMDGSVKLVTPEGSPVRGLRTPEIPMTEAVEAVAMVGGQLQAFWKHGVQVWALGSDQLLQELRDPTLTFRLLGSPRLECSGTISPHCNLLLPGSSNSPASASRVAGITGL

| SMILES | Ki [1] [nM] | % IL-2 increase relative to untreated cells ([2]; assayed concentration 5.469 μM) [%] | % IL-2 increase relative to untreated cells ([2]; assayed concentration 2.778 μM) [%] | % IL-2 increase relative to untreated cells ([2]; assayed concentration 8.333 μM) [%] |
| --- | --- | --- | --- | --- |
| Cc1c(-c2cc3cc(NC(=O)O[C@H]4COC[C@@H]4F)ncc3c(N)c2F)cnc2c1NCCO2 (single isomer, unassigned) [Compound 477b] | 0.017 | 1494 | – | – |
| Cc1c(-c2cc3cc(NC(=O)O[C@H]4CCC[C@@H]4C#N)ncc3c(N)c2F)cnc2c1NCCO2 (single isomer, unassigned) [Compound 482b] | < 0.013 | – | 1719 | – |
| Cc1c(-c2cc3cc(NC(=O)O[C@@H]4CCC(=O)N(C)C4)ncc3c(N)c2F)cnc2c1NCCO2 [Compound 409b, (R)-1-Methyl-6-oxopiperidin-3-yl (8-amino-7-fluoro-6-(8-methyl-2,3-dihydro-1H-pyrido[2,3-b][1,4]oxazin-7-yl)isoquinolin-3-yl)carbamate] | 0.048 | – | 2838 | – |
| Cc1c(-c2cc3cc(NC(=O)O[C@H]4CCN(C)C4)ncc3c(N)c2F)cnc2c1NCCO2 [Compound 411a, (S)-1-Methylpyrrolidin-3-yl (8-amino-7-fluoro-6-(8-methyl-2,3-dihydro-1H-pyrido[2,3-b][1,4]oxazin-7-yl)isoquinolin-3-yl)carbamate] | 0.25 | – | 2119 | – |
| Cc1c(-c2cc3cc(NC(=O)O[C@@H]4CCCN(C)C4)ncc3c(N)c2F)cnc2c1NCCO2 [Compound 416a, (R)-1-Methylpiperidin-3-yl (8-amino-7-fluoro-6-(8-methyl-2,3-dihydro-1H-pyrido[2,3-b][1,4]oxazin-7-yl)isoquinolin-3-yl)carbamate] | 0.075 | – | 2989 | – |
| Cc1c(-c2cc3cc(NC(=O)O[C@@H]4CCN(C5COC5)C[C@H]4F)ncc3c(N)c2F)cnc2c1NCCO2 [Compound 445b, (3R,4R)-3-Fluoro-1-(oxetan-3-yl)piperidin-4-yl(8-amino-7-fluoro-6-(8-methyl-2,3-dihydro-1H-pyrido[2,3-b][1,4]oxazin-7-yl)isoquinolin-3-yl)carbamate] | – | – | 1436 | – |
| Cc1c(-c2cc3cc(NC(=O)OC4CC(C)(O)C4)ncc3c(N)c2F)cnc2c1NCCO2 (stereo not shown) [Compound 486, (3-Hydroxy-3-methyl-cyclobutyl) N-[8-amino-7-fluoro-6-(8-methyl-2,3-dihydro-1H-pyrido[2,3-b][1,4]oxazin-7-yl)-3-isoquinolyl]carbamate] | < 0.013 | – | 1400 | – |
| Cc1c(-c2cc3cc(NC(=O)O[C@H]4C[C@@H](CC#N)C4)ncc3c(N)c2F)cnc2c1NCCO2 [Compound 536b, (1s,3r)-3-(Cyanomethyl)cyclobutyl (8-amino-7-fluoro-6-(8-methyl-2,3-dihydro-1H-pyrido[2,3-b][1,4]oxazin-7-yl)isoquinolin-3-yl)carbamate] | – | – | – | 2280 |
| Cc1c(N)cncc1-c1cc2cc(NC(=O)NC3CCCC3)ncc2c(N)c1F [Compound 749, 1-(8-Amino-6-(5-amino-4-methylpyridin-3-yl)-7-fluoroisoquinolin-3-yl)-3-cyclopentylurea] | 0.102 | – | – | – |
| Cc1c(-c2cc3cc(NC(=O)N(C)C4CCC4)ncc3c(N)c2F)cnc2c1NCCO2 [Compound 752, 3-(8-Amino-7-fluoro-6-(8-methyl-2,3-dihydro-1H-pyrido[2,3-b][1,4]oxazin-7-yl)isoquinolin-3-yl)-1-cyclobutyl-1-methylurea] | 0.52 | – | – | – |
| Cc1c(-c2cc3cc(NC(=O)N4CC5(CCOCC5)C4)ncc3c(N)c2F)cnc2c1NCCO2 [Compound 753, N-(8-Amino-7-fluoro-6-(8-methyl-2,3-dihydro-1H-pyrido[2,3-b][1,4]oxazin-7-yl)isoquinolin-3-yl)-7-oxa-2-azaspiro[3.5]nonane-2-carboxamide] | 0.039 | – | – | – |
| Cc1c(-c2cc3cc(NC(=O)N4CC(C)(O)C4)ncc3c(N)c2F)cnc2c1NCCO2 [Compound 754] | 0.205 | – | – | – |
| Cc1c(-c2cc3cc(NC(=O)N4CCC4)ncc3c(N)c2F)cnc2c1NCCO2 [Compound 756, N-(8-Amino-7-fluoro-6-(8-methyl-2,3-dihydro-1H-pyrido[2,3-b][1,4]oxazin-7-yl)isoquinolin-3-yl)azetidine-1-carboxamide] | 0.02 | – | – | – |
